Assay: studies of the concentration at which PGG of a given purity may be safely delivered
Details: depends on purity of the PGG; toxic impurities gallic acid and methyl gallate
Excerpt: The concentrations of PGG which may be safely delivered to a patient may be generally proportional to the purity of the PGG. For example, gallic acid, depicted in FIG. 1B, and methyl gallate, depicted in FIG. 1C, are common cytotoxic impurities which may be removed from a source batch of PGG during the purification process. Eliminating the presence of or reducing the concentration of toxic impurities from the delivered PGG may allow higher concentrations of the PGG to be delivered due to the mitigation of the toxic side effects of impurities commonly found in isolated PGG. For instance, studies have shown that substantially 100% pure PGG may be safely delivered at concentrations up to approximately 0.330% (w/v), 95% pure PGG may be safely delivered at concentrations up to approximately 0.125% (w/v), and 85% pure PGG may be safely delivered at concentrations up to approximately 0.06% (w/v). Delivery of PGG in higher concentrations may enhance the amount of uptake of PGG by the target tissue which may increase the efficacy of the PGG treatment. Delivery of PGG in higher concentrations may increase the rate of uptake of PGG by the tissue allowing the same amount of uptake in shorter delivery times. Reducing or minimizing the delivery time may be advantageous for reducing the overall treatment time, and particularly the duration of time for which a blood vessel, such as the aorta, is potentially occluded, as described elsewhere herein. Minimization of the treatment time and particularly the duration of blood occlusion may improve the safety and convenience of the treatment procedure and improve patient outcomes.

Substance	concentration up to which PGG may be safely delivered
1,2,3,4,6-pentagalloyl glucose [substantially 100% pure PGG]	≤ 0.330 % (w/v)
1,2,3,4,6-pentagalloyl glucose [85% pure PGG]	≤ 0.06 % (w/v)
1,2,3,4,6-pentagalloyl glucose [95% pure PGG]	≤ 0.125 % (w/v)

— patent publication US11331102B2, “Purified pentagalloyl glucose and devices for delivery” (Nectero Medical, Inc., priority 2018, dated 2022)
